We go through 22 compounds from US20240270695A1, “COMPOUNDS, COMPOSITIONS AND METHODS OF TREATING DISORDERS” (Chengdu Anticancer Bioscience LTD, priority 2021, published 2024).

The subject of assay [1] is RPE-Neo or RPE-MYC or RPE-MYC expressing an EGFP-Histone 2B fusion protein. As to the kind of experiment: Phenotypic screening assay (arrest in mitosis, change in DNA content, cell death; GE IN-Cell Analyzer 2000). It is filed as cell-based. The following applies: Homo sapiens, compounds 20 nM to 20 μM, 24, 48 or 72 hours.
Assay [2] shares this test system. The assay is described as follows: MTT assays of cellular proliferation. It is filed as cell-based. The settings on record: Homo sapiens, min. effective conc., read-out: Proliferative arrest (<50%). (In general: Formazan colour is commonly taken as a measure of viable cells.)
The mark [3] stands for this setting: read-out: Min. Effective conc. for Polyploidy (≥10%).
Setting [4] is: min. effective conc., read-out: Cell Death (>30%).
Setting [5] is: min. effective conc., read-out: Mitotic Arrest (≥10%).

In the case of `CNC(=O)C1=C(O)c2ccccc2N(Cc2ccc(F)c(OC)c2)C(=O)C1` [Example 112, 1-(4-fluoro-3-methoxybenzyl)-5-hydroxy-N-methyl-2-oxo-2,3-dihydro-1H-benzo[b]azepine-4-carboxamide], the minimal effective concentration in assay [1] (setting [3]), in assay [1] (setting [4]), in assay [1] (setting [5]) and in assay [2] was 1 to 10 µM each time.

`CNC(=O)C1=C(O)c2ccccc2N(Cc2ccc(Br)c(F)c2)C(=O)C1` [Example 125, 1-(4-bromo-3-fluorobenzyl)-5-hydroxy-N-methyl-2-oxo-2,3-dihydro-1H-benzo[b]azepine-4-carboxamide]: the minimal effective concentration in assay [1] (setting [3]), in assay [1] (setting [4]), in assay [1] (setting [5]) and in assay [2] was 1 to 10 µM each time.

For `CNC(=O)C1=C(O)c2ccccc2N(Cc2cc(F)c(OC)c(F)c2)C(=O)C1` [Example 122, 1-(3,5-difluoro-4-methoxybenzyl)-5-hydroxy-N-methyl-2-oxo-2,3-dihydro-1H-benzo[b]azepine-4-carboxamide], the minimal effective concentration in assay [1] (setting [3]), in assay [1] (setting [4]), in assay [1] (setting [5]) and in assay [2] was 30 to 1000 µM in each case.

As for `CNC(=O)C1=C(O)c2ccccc2N(Cc2ccc(F)c(C(F)(F)F)c2)C(=O)C1` [Example 118, 1-(4-fluoro-3-(trifluoromethyl)benzyl)-5-hydroxy-N-methyl-2-oxo-2,3-dihydro-1H-benzo[b]azepine-4-carboxamide], the minimal effective concentration in assay [1] (setting [3]), in assay [1] (setting [4]), in assay [1] (setting [5]) and in assay [2] was 30 to 1000 µM in each case.

For `CNC(=O)C1=C(O)c2ccccc2N(Cc2ccc(F)c(F)c2)C(=O)C1` [Example 102, 1-(3,4-difluorobenzyl)-5-hydroxy-N-methyl-2-oxo-2,3-dihydro-1H-benzo[b]azepine-4-carboxamide], the minimal effective concentration in assay [1] (setting [3]), in assay [1] (setting [4]), in assay [1] (setting [5]) and in assay [2] was 30 to 1000 µM each time.

For `CNC(=O)C1=C(O)c2ccccc2N(Cc2ccc(C(C)=O)cc2)C(=O)C1` [Example 90, 1-(4-acetylbenzyl)-5-hydroxy-N-methyl-2-oxo-2,3-dihydro-1H-benzo[b]azepine-4-carboxamide], the minimal effective concentration in assay [1] (setting [3]), in assay [1] (setting [4]), in assay [1] (setting [5]) and in assay [2] was 30 to 1000 µM each time.

As for `CNC(=O)C1=C(O)c2ccccc2N(CC2CC2)C(=O)C1` [Example 70, 1-(cyclopropylmethyl)-5-hydroxy-N-methyl-2-oxo-2,3-dihydro-1H-benzo[b]azepine-4-carboxamide], the minimal effective concentration in assay [1] (setting [3]), in assay [1] (setting [4]), in assay [1] (setting [5]) and in assay [2] was 30 to 1000 µM throughout.

As for `CC(c1ccc(F)cc1)N1C(=O)CCC(=O)c2ccccc21` (stereo not drawn) [Example 82, 1-(1-(4-fluorophenyl)ethyl)-3,4-dihydro-1H-benzo[b]azepine-2,5-dione], the minimal effective concentration in assay [1] (setting [3]), in assay [1] (setting [4]), in assay [1] (setting [5]) and in assay [2] was 30 to 1000 µM in each case.

As to `CNC(=O)C1CC(=O)N(Cc2ccc(OC(F)F)cc2)c2ccccc2C1=O` (stereo not drawn) [Example 94, 1-(4-(difluoromethoxy)benzyl)-5-hydroxy-N-methyl-2-oxo-2,3-dihydro-1H-benzo[b]azepine-4-carboxamide], the minimal effective concentration in assay [1] (setting [3]), in assay [1] (setting [4]), in assay [1] (setting [5]) and in assay [2] was 30 to 1000 µM in each case.

As to `CNC(=O)C1=C(O)c2ccccc2N(Cc2ccccc2C)C(=O)C1` [Example 81, 5-hydroxy-N-methyl-1-(2-methylbenzyl)-2-oxo-2,3-dihydro-1H-benzo[b]azepine-4-carboxamide], the minimal effective concentration in assay [1] (setting [3]), in assay [1] (setting [4]), in assay [1] (setting [5]) and in assay [2] was 30 to 1000 µM in each case.

`CNC(=O)C1=C(O)c2ccccc2N(Cc2ccc(OC)c(F)c2)C(=O)C1` [Example 111, 1-(3-fluoro-4-methoxybenzyl)-5-hydroxy-N-methyl-2-oxo-2,3-dihydro-1H-benzo[b]azepine-4-carboxamide]: the minimal effective concentration in assay [1] (setting [3]), in assay [1] (setting [4]), in assay [1] (setting [5]) and in assay [2] was 1 to 10 µM throughout.

`CNC(=O)C1=C(O)c2ccc(OC(F)F)cc2N(Cc2ccc(C)c(F)c2)C(=O)C1` [Example 129, 8-(difluoromethoxy)-1-(3-fluoro-4-methylbenzyl)-5-hydroxy-N-methyl-2-oxo-2,3-dihydro-1H-benzo[b]azepine-4-carboxamide]: the minimal effective concentration in assay [1] (setting [3]), in assay [1] (setting [4]), in assay [1] (setting [5]) and in assay [2] was 0.001 to 1 µM in each case.

Regarding `CNC(=O)C1=C(O)c2ccccc2N(Cc2cccc(OC)c2)C(=O)C1` [Example 92, 5-hydroxy-1-(3-methoxybenzyl)-N-methyl-2-oxo-2,3-dihydro-1H-benzo[b]azepine-4-carboxamide], the minimal effective concentration in assay [1] (setting [3]), in assay [1] (setting [4]), in assay [1] (setting [5]) and in assay [2] was 10 to 30 µM in each case.

`CNC(=O)C1=C(O)c2ccccc2N(Cc2cc(F)cc(F)c2)C(=O)C1` [Example 104, 1-(3,5-difluorobenzyl)-5-hydroxy-N-methyl-2-oxo-2,3-dihydro-1H-benzo[b]azepine-4-carboxamide]: the minimal effective concentration in assay [1] (setting [3]), in assay [1] (setting [4]), in assay [1] (setting [5]) and in assay [2] was 30 to 1000 µM each time.

On to `CNC(=O)C1=C(O)c2cc(OC)ccc2N(Cc2ccc(C)c(F)c2)C(=O)C1` [Example 137, 1-(3-fluoro-4-methylbenzyl)-5-hydroxy-7-methoxy-N-methyl-2-oxo-2,3-dihydro-1H-benzo[b]azepine-4-carboxamide], for which the minimal effective concentration in assay [1] (setting [3]), in assay [1] (setting [4]), in assay [1] (setting [5]) and in assay [2] was 1 to 10 µM each time.

Turning to `CNC(=O)C1=C(O)c2ccccc2N(Cc2cc(F)c(F)c(F)c2)C(=O)C1` [Example 105, 5-hydroxy-N-methyl-2-oxo-1-(3,4,5-trifluorobenzyl)-2,3-dihydro-1H-benzo[b]azepine-4-carboxamide], the minimal effective concentration in assay [1] (setting [3]), in assay [1] (setting [4]), in assay [1] (setting [5]) and in assay [2] was 30 to 1000 µM throughout.

For `CNC(=O)C1=C(O)c2ccc(OCc3ccc(OC)c(F)c3)cc2N(Cc2ccc(C)c(F)c2)C(=O)C1` [Example 133, 8-((3-fluoro-4-methoxybenzyl)oxy)-1-(3-fluoro-4-methylbenzyl)-5-hydroxy-N-methyl-2-oxo-2,3-dihydro-1H-benzo[b]azepine-4-carboxamide], the minimal effective concentration in assay [1] (setting [3]), in assay [1] (setting [4]), in assay [1] (setting [5]) and in assay [2] was 1 to 10 µM in each case.

Turning to `CNC(=O)C1=C(O)c2ccccc2N(Cc2ccccc2)C(=O)C1` [Example 72, 1-benzyl-5-hydroxy-N-methyl-2-oxo-2,3-dihydro-1H-benzo[b]azepine-4-carboxamide], the minimal effective concentration in assay [1] (setting [3]), in assay [1] (setting [5]) and in assay [2] was 30 to 1000 µM throughout.

On to `CNC(=O)C1=C(O)c2ccccc2N(Cc2ccc(Cl)cc2)C(=O)C1` [Example 83, 1-(4-chlorobenzyl)-5-hydroxy-N-methyl-2-oxo-2,3-dihydro-1H-benzo[b]azepine-4-carboxamide], for which the minimal effective concentration in assay [1] (setting [3]), in assay [1] (setting [4]), in assay [1] (setting [5]) and in assay [2] was 10 to 30 µM throughout.

On to `CNC(=O)C1=C(O)c2ccccc2N(Cc2ccc(Cl)c(F)c2)C(=O)C1` [Example 124, 1-(4-chloro-3-fluorobenzyl)-5-hydroxy-N-methyl-2-oxo-2,3-dihydro-1H-benzo[b]azepine-4-carboxamide], for which the minimal effective concentration in assay [1] (setting [3]), in assay [1] (setting [4]), in assay [1] (setting [5]) and in assay [2] was 1 to 10 µM each time.

Regarding `CNC(=O)C1=C(O)c2ccccc2N(Cc2cccc(F)c2)C(=O)C1` [Example 77, 1-(3-fluorobenzyl)-5-hydroxy-N-methyl-2-oxo-2,3-dihydro-1H-benzo[b]azepine-4-carboxamide], the minimal effective concentration in assay [1] (setting [3]), in assay [1] (setting [4]), in assay [1] (setting [5]) and in assay [2] was 30 to 1000 µM throughout.

Turning to `CNC(=O)C1=C(O)c2ccc(Br)cc2N(Cc2ccc(F)c(C)c2)C(=O)C1` [Example 132, 8-bromo-1-(4-fluoro-3-methylbenzyl)-5-hydroxy-N-methyl-2-oxo-2,3-dihydro-1H-benzo[b]azepine-4-carboxamide], the minimal effective concentration in assay [1] (setting [3]), in assay [1] (setting [4]), in assay [1] (setting [5]) and in assay [2] was 1 to 10 µM in each case.
